Data: PubChem BioAssay (NCI)
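Compound exposure: 48 hours, 5 concentrations, 96-well plates. TGI marks complete inhibition of growth.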

How the values were obtained:
Experiment in all cases: NCI-60 cell line screen, 48 h
SNB-19 CNS = test system: SNB-19 CNS
COLO 205 colon = test system: COLO 205 colon
HOP-92 NSCLC = test system: HOP-92 NSCLC
RPMI-8226 leukemia = test system: RPMI-8226 leukemia
CAKI-1 renal = test system: CAKI-1 renal
HCT-15 colon = test system: HCT-15 colon
SF-295 CNS = test system: SF-295 CNS
HCC-2998 colon = test system: HCC-2998 colon
SK-MEL-2 melanoma = test system: SK-MEL-2 melanoma
LOX IMVI melanoma = test system: LOX IMVI melanoma
EKVX NSCLC = test system: EKVX NSCLC
MCF7 breast = test system: MCF7 breast
DU-145 prostate = test system: DU-145 prostate
OVCAR-8 ovarian = test system: OVCAR-8 ovarian
UACC-62 melanoma = test system: UACC-62 melanoma
A498 renal = test system: A498 renal
SF-539 CNS = test system: SF-539 CNS
ACHN renal = test system: ACHN renal
OVCAR-4 ovarian = test system: OVCAR-4 ovarian
HCT-116 colon = test system: HCT-116 colon

SMILES | TGI (SNB-19 CNS) [µM] | TGI (COLO 205 colon) [µM] | TGI (HOP-92 NSCLC) [µM] | TGI (RPMI-8226 leukemia) [µM] | TGI (CAKI-1 renal) [µM] | TGI (HCT-15 colon) [µM] | TGI (SF-295 CNS) [µM] | TGI (HCC-2998 colon) [µM] | TGI (SK-MEL-2 melanoma) [µM] | TGI (LOX IMVI melanoma) [µM] | TGI (EKVX NSCLC) [µM] | TGI (MCF7 breast) [µM] | TGI (DU-145 prostate) [µM] | TGI (OVCAR-8 ovarian) [µM] | TGI (UACC-62 melanoma) [µM] | TGI (A498 renal) [µM] | TGI (SF-539 CNS) [µM] | TGI (ACHN renal) [µM] | TGI (OVCAR-4 ovarian) [µM] | TGI (HCT-116 colon) [µM]
NC1=NCC(CN2CCOCC2)O1 (stereo unspecified) | > 100 | > 100 | > 100 | > 100 | > 100 | > 100 | > 100 | > 100 | > 100 | > 100 | > 100 | > 100 | > 100 | > 100 | > 100 | > 100 | > 100 | > 100 | > 100 | > 100
N#CC12C(=O)N=C(N)C1(C#N)C(c1ccco1)NC1=C2CCCC1 (stereo unspecified) | > 100 | > 100 | > 100 | > 100 | > 100 | > 100 | > 100 | > 100 | > 100 | > 100 | > 100 | > 100 | > 100 | > 100 | > 100 | > 100 | – | > 100 | > 100 | > 100
CCCCCCOc1ccc(C(=O)NOC)cc1 | > 100 | > 100 | > 100 | > 100 | > 100 | > 100 | > 100 | > 100 | > 100 | > 100 | > 100 | > 100 | > 100 | > 100 | > 100 | > 100 | > 100 | > 100 | > 100 | > 100
COc1ccc2c(c1)/C(=C\c1c(Cl)nc3sc(C)cn13)C(=O)N2 | 13.4 | 9.45 | 23.1 | 13.8 | 17.1 | 22.4 | 11 | 18.3 | 8.41 | 18.1 | 21.2 | 14.2 | 18.2 | 15.1 | 16.4 | 16.6 | 6.76 | 20.1 | – | 14.1
CC(=N/N=C/c1ccccn1)/C(C)=N/N=C(C)/C(C)=N/N=C(C)/C(C)=N/N=C(C)/C(C)=N\N=C\c1ccccn1 | > 100 | > 100 | > 100 | > 100 | > 100 | > 100 | > 100 | > 100 | > 100 | > 100 | > 100 | > 100 | > 100 | > 100 | – | > 100 | > 100 | > 100 | > 100 | > 100
O=C(/C=C/c1ccc2c(c1)OCO2)CC(=O)C(=O)c1c[nH]c2ccccc12 | > 100 | > 100 | > 100 | > 100 | > 100 | > 100 | > 100 | 48.4 | > 100 | > 100 | > 100 | > 100 | > 100 | > 100 | > 100 | > 100 | > 100 | > 100 | – | > 100
